Assays:
[1] = test system: Acinetobacter baumannii; test: Ratio of Kcat to Km of Acinetobacter baumannii AC-54/97 metallo-beta-lactamase IMP-2 expressed in Escherichia coli DH5alpha
[2] = test system: Acinetobacter baumannii; test: Activity of Acinetobacter baumannii AC-54/97 metallo-beta-lactamase IMP-2 expressed in Escherichia coli DH5alpha

SMILES | kcat/Km [1] | Km [2] [µM] | kcat [2] [s⁻¹]
CO[C@@]1(NC(=O)Cc2cccs2)C(=O)N2C(C(=O)O)=C(COC(N)=O)CS[C@@H]21 | 1 | 7 | 7
C[C@@H](O)[C@H]1C(=O)N2C(C(=O)O)=C(SCCNC=N)C[C@H]12 | 0.92 | 24 | 22
CC(C)(O/N=C(\C(=O)N[C@@H]1C(=O)N2C(C(=O)[O-])=C(C[n+]3ccccc3)CS[C@H]12)c1csc(N)n1)C(=O)O | 0.19 | 111 | 21
CC1(C)S[C@@H]2[C@H](NC(=O)[C@H](C(=O)O)c3ccsc3)C(=O)N2[C@H]1C(=O)O | 0.36 | 700 | 252
CC1(C)S[C@@H]2[C@H](NC(=O)[C@H](N)c3ccc(O)cc3)C(=O)N2[C@H]1C(=O)O | 0.21 | 110 | 23
C[C@@H](O)[C@H]1C(=O)N2C(C(=O)O)=C(S[C@@H]3CN[C@H](C(=O)N(C)C)C3)[C@H](C)[C@H]12 | 3.3 | 0.3 | 1
